In the kinase profiling compilation of Christmann-Franck et al. (2016):

Legend:
Assay in all cases: SelectScreen, TR FRET
ACVR1B (human) = ACVR1B (human) (UniProt P36896)
PRKACA (human) = PRKACA (human) (UniProt P17612)
NEK2 (human) = NEK2 (human) (UniProt P51955)
NUAK1 (human) = NUAK1 (human) (UniProt O60285)
SRC (human) = SRC (human) (UniProt P12931)
IGF1R (human) = IGF1R (human) (UniProt P08069)
PLK1 (human) = PLK1 (human) (UniProt P53350)
ERBB2 (human) = ERBB2 (human) (UniProt P04626)
MINK1 (human) = MINK1 (human) (UniProt Q8N4C8)
PRKCQ (human) = PRKCQ (human) (UniProt Q04759)
[1] = biological target: PRKAA1 PRKAB1 PRKAG1 (human) (UniProt P54619+Q13131+Q9Y478); settings: compound 0.1 µM
JAK3 JH1 JH2 (human) = JAK3 JH1 JH2 (human) (UniProt P52333)
PDPK1 (human) = PDPK1 (human) (UniProt O15530)
FGFR2 (human) = FGFR2 (human) (UniProt P21802)
FLT3 (human) = FLT3 (human) (UniProt P36888)
MAPK14 (human) = MAPK14 (human) (UniProt Q16539)
TAOK2 (human) = TAOK2 (human) (UniProt Q9UL54)
BRAF (human) = BRAF (human) (UniProt P15056)
ADRBK1 (human) = ADRBK1 (human) (UniProt P25098)
SGK1 (human) = SGK1 (human) (UniProt O00141)
HCK (human) = HCK (human) (UniProt P08631)
MAPK9 (human) = MAPK9 (human) (UniProt P45984)
MAPK1 (human) = MAPK1 (human) (UniProt P28482)
CHEK1 (human) = CHEK1 (human) (UniProt O14757)
PASK (human) = PASK (human) (UniProt Q96RG2)
IRAK4 (human) = IRAK4 (human) (UniProt Q9NWZ3)
LCK (human) = LCK (human) (UniProt P06239)
RPS6KB1 (human) = RPS6KB1 (human) (UniProt P23443)

IRAK4 (human), sequence (Q9NWZ3 whole entry, looked up): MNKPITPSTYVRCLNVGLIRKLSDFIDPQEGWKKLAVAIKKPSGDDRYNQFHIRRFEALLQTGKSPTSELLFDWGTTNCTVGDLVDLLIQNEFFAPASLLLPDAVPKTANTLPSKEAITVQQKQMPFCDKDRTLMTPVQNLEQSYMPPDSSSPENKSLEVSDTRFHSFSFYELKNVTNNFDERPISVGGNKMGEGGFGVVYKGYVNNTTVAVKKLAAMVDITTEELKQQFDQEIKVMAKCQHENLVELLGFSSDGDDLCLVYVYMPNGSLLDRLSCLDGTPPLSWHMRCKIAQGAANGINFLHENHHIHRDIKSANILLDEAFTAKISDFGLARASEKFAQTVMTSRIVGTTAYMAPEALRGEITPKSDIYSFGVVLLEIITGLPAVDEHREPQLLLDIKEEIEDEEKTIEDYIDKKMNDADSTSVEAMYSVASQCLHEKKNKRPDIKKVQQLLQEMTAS
MAPK9 (human), sequence (P45984 whole entry, looked up): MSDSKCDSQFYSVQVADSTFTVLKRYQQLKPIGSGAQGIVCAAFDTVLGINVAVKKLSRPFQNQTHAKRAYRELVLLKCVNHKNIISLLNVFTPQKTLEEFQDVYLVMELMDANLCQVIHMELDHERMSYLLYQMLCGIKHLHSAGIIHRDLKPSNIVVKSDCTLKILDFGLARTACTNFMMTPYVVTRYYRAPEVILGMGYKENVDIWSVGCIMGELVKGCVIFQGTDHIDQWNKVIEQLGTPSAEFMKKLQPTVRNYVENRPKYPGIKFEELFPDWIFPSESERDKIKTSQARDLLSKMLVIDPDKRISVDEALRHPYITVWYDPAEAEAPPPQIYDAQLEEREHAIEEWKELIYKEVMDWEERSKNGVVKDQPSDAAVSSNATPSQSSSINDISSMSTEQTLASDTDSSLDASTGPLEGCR
JAK3 JH1 JH2 (human), sequence (P52333 whole entry, looked up): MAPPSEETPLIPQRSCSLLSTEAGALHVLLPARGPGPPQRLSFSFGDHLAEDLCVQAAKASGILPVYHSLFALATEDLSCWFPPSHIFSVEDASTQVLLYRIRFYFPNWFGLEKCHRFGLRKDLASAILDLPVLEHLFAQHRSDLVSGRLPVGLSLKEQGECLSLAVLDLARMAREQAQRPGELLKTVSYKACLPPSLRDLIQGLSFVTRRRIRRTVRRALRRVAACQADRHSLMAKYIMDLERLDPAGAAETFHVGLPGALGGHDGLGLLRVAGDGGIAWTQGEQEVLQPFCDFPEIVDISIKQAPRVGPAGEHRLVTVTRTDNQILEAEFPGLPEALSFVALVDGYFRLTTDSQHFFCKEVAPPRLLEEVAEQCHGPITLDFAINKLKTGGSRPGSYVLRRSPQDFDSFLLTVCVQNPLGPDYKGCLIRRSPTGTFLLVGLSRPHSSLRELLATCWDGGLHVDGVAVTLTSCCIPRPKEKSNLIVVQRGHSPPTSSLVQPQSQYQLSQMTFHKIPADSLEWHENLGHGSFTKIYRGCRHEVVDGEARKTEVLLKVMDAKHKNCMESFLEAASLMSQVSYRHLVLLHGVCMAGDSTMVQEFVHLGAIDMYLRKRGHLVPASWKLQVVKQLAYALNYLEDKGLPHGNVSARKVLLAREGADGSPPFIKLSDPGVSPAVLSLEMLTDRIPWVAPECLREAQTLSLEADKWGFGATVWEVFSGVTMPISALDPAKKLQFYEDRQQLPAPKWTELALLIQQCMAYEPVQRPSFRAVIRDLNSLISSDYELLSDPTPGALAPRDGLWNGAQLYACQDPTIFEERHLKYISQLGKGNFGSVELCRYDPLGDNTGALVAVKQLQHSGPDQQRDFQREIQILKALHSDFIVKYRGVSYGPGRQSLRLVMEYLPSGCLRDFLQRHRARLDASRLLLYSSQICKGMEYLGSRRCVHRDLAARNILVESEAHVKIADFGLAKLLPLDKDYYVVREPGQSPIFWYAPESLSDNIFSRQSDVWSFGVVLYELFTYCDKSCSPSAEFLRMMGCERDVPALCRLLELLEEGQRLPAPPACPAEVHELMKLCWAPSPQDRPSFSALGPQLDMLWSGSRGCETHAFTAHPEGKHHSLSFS
PRKCQ (human), sequence (Q04759 whole entry, looked up): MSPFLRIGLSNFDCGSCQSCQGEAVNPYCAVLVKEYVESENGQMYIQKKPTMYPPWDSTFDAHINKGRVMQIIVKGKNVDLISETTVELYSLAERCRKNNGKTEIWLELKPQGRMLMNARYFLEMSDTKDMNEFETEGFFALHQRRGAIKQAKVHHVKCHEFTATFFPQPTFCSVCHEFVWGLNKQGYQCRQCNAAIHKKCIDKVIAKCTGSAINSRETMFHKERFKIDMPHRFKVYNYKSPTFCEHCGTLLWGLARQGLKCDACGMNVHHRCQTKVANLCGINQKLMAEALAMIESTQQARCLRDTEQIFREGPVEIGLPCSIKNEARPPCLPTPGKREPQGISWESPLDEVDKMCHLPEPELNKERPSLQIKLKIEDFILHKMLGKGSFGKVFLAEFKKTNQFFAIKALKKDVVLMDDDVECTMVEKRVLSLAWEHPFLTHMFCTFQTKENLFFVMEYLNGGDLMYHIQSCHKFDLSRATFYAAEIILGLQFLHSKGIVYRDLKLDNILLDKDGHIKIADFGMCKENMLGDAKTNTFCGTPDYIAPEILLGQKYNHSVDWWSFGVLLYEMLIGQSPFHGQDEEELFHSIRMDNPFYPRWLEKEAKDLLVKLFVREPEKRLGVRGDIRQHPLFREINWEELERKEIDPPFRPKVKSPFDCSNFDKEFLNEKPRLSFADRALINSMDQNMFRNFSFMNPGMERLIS
NUAK1 (human), sequence (O60285 whole entry, looked up): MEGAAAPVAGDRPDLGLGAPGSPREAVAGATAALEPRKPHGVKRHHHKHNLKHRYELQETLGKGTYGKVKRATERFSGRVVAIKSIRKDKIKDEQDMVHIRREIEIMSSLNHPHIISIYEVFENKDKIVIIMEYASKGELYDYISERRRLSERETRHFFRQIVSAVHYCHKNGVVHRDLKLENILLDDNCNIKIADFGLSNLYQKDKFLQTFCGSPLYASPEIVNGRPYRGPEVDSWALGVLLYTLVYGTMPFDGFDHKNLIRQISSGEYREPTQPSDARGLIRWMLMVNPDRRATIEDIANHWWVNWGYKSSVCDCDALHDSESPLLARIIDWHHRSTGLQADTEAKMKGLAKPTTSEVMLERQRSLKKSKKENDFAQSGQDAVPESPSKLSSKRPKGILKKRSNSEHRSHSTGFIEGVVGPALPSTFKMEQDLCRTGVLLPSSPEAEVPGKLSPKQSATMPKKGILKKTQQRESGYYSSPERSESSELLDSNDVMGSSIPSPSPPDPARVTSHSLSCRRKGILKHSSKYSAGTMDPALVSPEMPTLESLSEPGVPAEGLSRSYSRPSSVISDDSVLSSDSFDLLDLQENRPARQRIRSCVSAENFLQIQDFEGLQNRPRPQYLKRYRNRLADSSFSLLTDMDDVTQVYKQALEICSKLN
PASK (human), sequence (Q96RG2 whole entry, looked up): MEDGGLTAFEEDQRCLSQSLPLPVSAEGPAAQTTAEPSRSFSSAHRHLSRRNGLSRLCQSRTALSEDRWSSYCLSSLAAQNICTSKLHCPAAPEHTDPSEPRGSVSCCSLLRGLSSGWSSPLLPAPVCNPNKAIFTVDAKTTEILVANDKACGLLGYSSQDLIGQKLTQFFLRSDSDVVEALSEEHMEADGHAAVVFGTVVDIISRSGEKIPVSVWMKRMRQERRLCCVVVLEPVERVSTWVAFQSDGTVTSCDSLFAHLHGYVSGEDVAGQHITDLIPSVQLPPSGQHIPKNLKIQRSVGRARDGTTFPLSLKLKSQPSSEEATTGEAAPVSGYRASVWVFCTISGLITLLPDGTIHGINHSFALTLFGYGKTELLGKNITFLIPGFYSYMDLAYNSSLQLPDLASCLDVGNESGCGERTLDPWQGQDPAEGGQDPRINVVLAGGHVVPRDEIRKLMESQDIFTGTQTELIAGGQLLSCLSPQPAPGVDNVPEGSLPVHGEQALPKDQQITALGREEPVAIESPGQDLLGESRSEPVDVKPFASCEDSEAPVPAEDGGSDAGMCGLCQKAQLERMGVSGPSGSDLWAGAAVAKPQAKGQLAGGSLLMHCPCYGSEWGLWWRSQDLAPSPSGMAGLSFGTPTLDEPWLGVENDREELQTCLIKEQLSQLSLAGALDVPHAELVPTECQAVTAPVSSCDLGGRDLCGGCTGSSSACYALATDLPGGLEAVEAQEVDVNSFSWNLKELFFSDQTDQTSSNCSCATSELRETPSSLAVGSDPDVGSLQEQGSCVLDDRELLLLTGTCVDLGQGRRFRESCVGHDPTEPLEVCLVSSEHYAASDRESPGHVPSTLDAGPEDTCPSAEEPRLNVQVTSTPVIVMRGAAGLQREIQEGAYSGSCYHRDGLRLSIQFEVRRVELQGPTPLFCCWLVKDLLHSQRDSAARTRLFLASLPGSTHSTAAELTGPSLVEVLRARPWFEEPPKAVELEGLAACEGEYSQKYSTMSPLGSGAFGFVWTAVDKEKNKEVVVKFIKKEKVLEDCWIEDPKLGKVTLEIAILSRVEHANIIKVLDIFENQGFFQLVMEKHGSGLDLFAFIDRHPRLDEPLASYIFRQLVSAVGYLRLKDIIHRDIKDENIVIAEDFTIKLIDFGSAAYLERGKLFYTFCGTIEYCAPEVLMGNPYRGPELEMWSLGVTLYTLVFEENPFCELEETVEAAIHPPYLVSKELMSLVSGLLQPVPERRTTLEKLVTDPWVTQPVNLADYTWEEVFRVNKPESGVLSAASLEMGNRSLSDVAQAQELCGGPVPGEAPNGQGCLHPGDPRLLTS
MAPK1 (human), sequence (P28482 whole entry, looked up): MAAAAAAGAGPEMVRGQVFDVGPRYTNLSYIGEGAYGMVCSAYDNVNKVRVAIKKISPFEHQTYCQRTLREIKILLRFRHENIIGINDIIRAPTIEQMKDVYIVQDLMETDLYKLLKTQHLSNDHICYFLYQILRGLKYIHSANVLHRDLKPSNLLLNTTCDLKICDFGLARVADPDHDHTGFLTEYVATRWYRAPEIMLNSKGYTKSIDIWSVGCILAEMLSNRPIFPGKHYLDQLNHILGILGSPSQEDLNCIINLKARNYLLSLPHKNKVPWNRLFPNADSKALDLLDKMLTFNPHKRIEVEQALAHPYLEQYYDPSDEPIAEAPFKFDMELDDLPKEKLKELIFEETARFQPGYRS

For `Cn1cc(-c2cnc3ccc4ccc(CC(=O)NCc5ccccn5)cc4c(=O)c3c2)cn1`, the inhibition (ACVR1B (human); compound 0.1 µM) was 12.8%, the inhibition (ACVR1B (human); compound 1.0 µM) was 12.6% and the inhibition (ACVR1B (human); compound 10.0 µM) was 10.1%. For the same compound, the inhibition (PRKACA (human); compound 0.1 µM) was 6.3%, the inhibition (PRKACA (human); compound 1.0 µM) was 7.7% and the inhibition (PRKACA (human); compound 10.0 µM) was 9.5%. The inhibition (NEK2 (human); compound 0.1 µM) was 15.7%, the inhibition (NEK2 (human); compound 1.0 µM) was 9.8% and the inhibition (NEK2 (human); compound 10.0 µM) was -56.3%. For the same compound, the inhibition (NUAK1 (human); compound 0.1 µM) was -10.5%, the inhibition (NUAK1 (human); compound 1.0 µM) was 13.6% and the inhibition (NUAK1 (human); compound 10.0 µM) was 63.9%. For the same compound, the inhibition (SRC (human); compound 0.1 µM) was 3.7%, the inhibition (SRC (human); compound 1.0 µM) was 7.4% and the inhibition (SRC (human); compound 10.0 µM) was 15%. For the same compound, the inhibition (IGF1R (human); compound 0.1 µM) was 16.4%, the inhibition (IGF1R (human); compound 1.0 µM) was 15.3% and the inhibition (IGF1R (human); compound 10.0 µM) was 16.7%. It also gave an inhibition (PLK1 (human); compound 0.1 µM) of 8.9%, an inhibition (PLK1 (human); compound 1.0 µM) of 11.2% and an inhibition (PLK1 (human); compound 10.0 µM) of 10%. For the same compound, the inhibition (ERBB2 (human); compound 0.1 µM) was -4.3%, the inhibition (ERBB2 (human); compound 1.0 µM) was 2.2% and the inhibition (ERBB2 (human); compound 10.0 µM) was -10.5%. It also gave an inhibition (MINK1 (human); compound 0.1 µM) of 19.9%, an inhibition (MINK1 (human); compound 1.0 µM) of 29.2% and an inhibition (MINK1 (human); compound 10.0 µM) of 71.1%. It also gave an inhibition (PRKCQ (human); compound 0.1 µM) of 7.2%, an inhibition (PRKCQ (human); compound 1.0 µM) of 7.1% and an inhibition (PRKCQ (human); compound 10.0 µM) of 7.7%. The inhibition [1] was 2.1%, the inhibition (JAK3 JH1 JH2 (human); compound 0.1 µM) was 9.3% and the inhibition (JAK3 JH1 JH2 (human); compound 1.0 µM) was 6.1%. It also gave an inhibition (JAK3 JH1 JH2 (human); compound 10.0 µM) of 25.6%, an inhibition (PDPK1 (human); compound 0.1 µM) of 3.3% and an inhibition (PDPK1 (human); compound 1.0 µM) of 9.3%. The inhibition (PDPK1 (human); compound 10.0 µM) was 25.4%, the inhibition (FGFR2 (human); compound 0.1 µM) was 14.2% and the inhibition (FGFR2 (human); compound 1.0 µM) was 33.5%. The inhibition (FGFR2 (human); compound 10.0 µM) was 74%, the inhibition (FLT3 (human); compound 0.1 µM) was 24.6% and the inhibition (FLT3 (human); compound 1.0 µM) was 59.7%. For the same compound, the inhibition (FLT3 (human); compound 10.0 µM) was 80%, the inhibition (MAPK14 (human); compound 0.1 µM) was 17.9% and the inhibition (MAPK14 (human); compound 1.0 µM) was 20.8%. The inhibition (MAPK14 (human); compound 10.0 µM) was 20.1%, the inhibition (TAOK2 (human); compound 0.1 µM) was 10.9% and the inhibition (TAOK2 (human); compound 1.0 µM) was 7%. For the same compound, the inhibition (TAOK2 (human); compound 10.0 µM) was -17.5%, the inhibition (BRAF (human); compound 0.1 µM) was 12.3% and the inhibition (BRAF (human); compound 1.0 µM) was 13.5%. For the same compound, the inhibition (BRAF (human); compound 10.0 µM) was -0.3%, the inhibition (ADRBK1 (human); compound 0.1 µM) was 9.4% and the inhibition (ADRBK1 (human); compound 1.0 µM) was 8.9%. The inhibition (ADRBK1 (human); compound 10.0 µM) was 10.4%, the inhibition (SGK1 (human); compound 0.1 µM) was 10.9% and the inhibition (SGK1 (human); compound 1.0 µM) was 17.4%. The inhibition (SGK1 (human); compound 10.0 µM) was 49.8%, the inhibition (HCK (human); compound 0.1 µM) was 16.7% and the inhibition (HCK (human); compound 1.0 µM) was 19.1%. The inhibition (HCK (human); compound 10.0 µM) was 51.8%, the inhibition (MAPK9 (human); compound 0.1 µM) was -1.5% and the inhibition (MAPK9 (human); compound 1.0 µM) was 3.7%. For the same compound, the inhibition (MAPK9 (human); compound 10.0 µM) was 10.8%, the inhibition (MAPK1 (human); compound 0.1 µM) was 12.7% and the inhibition (MAPK1 (human); compound 1.0 µM) was 8.8%. For the same compound, the inhibition (MAPK1 (human); compound 10.0 µM) was -8.1%, the inhibition (CHEK1 (human); compound 0.1 µM) was 23.2% and the inhibition (CHEK1 (human); compound 1.0 µM) was -1.2%. For the same compound, the inhibition (CHEK1 (human); compound 10.0 µM) was 14.2%, the inhibition (PASK (human); compound 0.1 µM) was 7.5% and the inhibition (PASK (human); compound 1.0 µM) was 5.9%. It also gave an inhibition (PASK (human); compound 10.0 µM) of 11.1%, an inhibition (IRAK4 (human); compound 0.1 µM) of 19.8% and an inhibition (IRAK4 (human); compound 1.0 µM) of 25.5%. It also gave an inhibition (IRAK4 (human); compound 10.0 µM) of 59%, an inhibition (LCK (human); compound 0.1 µM) of 27.2% and an inhibition (LCK (human); compound 1.0 µM) of 37.9%. It also gave an inhibition (LCK (human); compound 10.0 µM) of 77.3%, an inhibition (RPS6KB1 (human); compound 0.1 µM) of 5.5% and an inhibition (RPS6KB1 (human); compound 1.0 µM) of 19.7%. It also gave an inhibition (RPS6KB1 (human); compound 10.0 µM) of 25.1%.
